{
  "source": "patent US9073853B2",
  "about": "“Cycloalkane carboxylic acid derivatives as CXCR3 receptor antagonists” (Sanofi, priority 2011, dated 2015)",
  "data": [
    {"biological_target": "human CXCR3-A receptor (Homo sapiens (Human), UniProt P49682)", "sequence (P49682 whole entry)": "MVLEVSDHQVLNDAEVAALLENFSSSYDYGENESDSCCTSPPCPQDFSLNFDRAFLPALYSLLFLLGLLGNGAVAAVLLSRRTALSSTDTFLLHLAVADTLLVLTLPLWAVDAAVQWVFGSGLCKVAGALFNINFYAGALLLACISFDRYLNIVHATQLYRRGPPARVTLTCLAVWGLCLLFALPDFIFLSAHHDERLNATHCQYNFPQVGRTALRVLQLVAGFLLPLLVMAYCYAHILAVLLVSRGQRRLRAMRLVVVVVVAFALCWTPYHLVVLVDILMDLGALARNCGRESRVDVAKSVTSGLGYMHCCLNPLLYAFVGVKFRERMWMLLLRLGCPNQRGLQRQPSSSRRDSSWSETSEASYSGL", "assay": "125I-CXCL10 competition radioligand binding assay", "settings": "displacement of 125I-CXCL10 from membranes of CHO cells expressing human recombinant CXCR3-A", "outline": "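Membranes from a recombinant cell line expressing human CXCR3-A (10-20 μg protein) were incubated with 125I-CXCL10 and test compound for 60 min at 25° C, then filtered onto PEI-soaked GF/B filters and gamma-counted. IC50 and Hill slope came from four-parameter nonlinear fitting of competition curves.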", "units": {"IC50": "nM"}, "values": [
      {"smiles": "CCc1cc(CN(C[C@H]2CC[C@H](C(=O)O)CC2)[C@H]2CCc3cc(Cl)ccc32)ccc1OCCN1C(=O)CCC1=O", "note": "[Example 71, trans-4-[(((S)-5-Chloro-indan-1-yl)-{4-[2-(2,5-dioxo-pyrrolidin-1-yl)-ethoxy]-3-ethyl-benzyl}-amino)-methyl]-cyclohexanecarboxylic acid]", "IC50": 176},
      {"smiles": "O=C1CCC(=O)N1CCOc1ccc(CN(C[C@H]2CC[C@H](C(=O)O)CC2)[C@H]2CCc3cc(Cl)ccc32)cc1F", "note": "[Example 72, trans-4-[(((S)-5-Chloro-indan-1-yl)-{4-[2-(2,5-dioxo-pyrrolidin-1-yl)-ethoxy]-3-fluoro-benzyl}-amino)-methyl]-cyclohexanecarboxylic acid]", "IC50": 825},
      {"smiles": "C[C@@H](c1ccc(Cl)cc1)N(Cc1ccc(OCCN2C(=O)CCC2=O)c(F)c1)C[C@H]1CC[C@H](C(=O)O)CC1", "note": "[Example 73, trans-4-[([(S)-1-(4-Chloro-phenyl)-ethyl]-{4-[2-(2,5-dioxo-pyrrolidin-1-yl)-ethoxy]-3-fluoro-benzyl}-amino)-methyl]-cyclohexanecarboxylic acid]", "IC50": 154},
      {"smiles": "COc1cc(CN(C[C@H]2CC[C@H](C(=O)O)CC2)[C@H]2CCc3cc(Cl)c(Cl)cc32)ccc1OCCN1C(=O)CCC1=O", "note": "[Example 74, trans-4-[(((S)-5,6-Dichloro-indan-1-yl)-{4-[2-(2,5-dioxo-pyrrolidin-1-yl)-ethoxy]-3-methoxy-benzyl}-amino)-methyl]-cyclohexanecarboxylic acid]", "IC50": 350},
      {"smiles": "CCc1cc(CN(C[C@H]2CC[C@H](C(=O)O)CC2)[C@@H](C)c2ccc(Cl)cc2)ccc1OCCN1C(=O)CCC1=O", "note": "[Example 75, trans-4-[([(S)-1-(4-Chloro-phenyl)-ethyl]-{4-[2-(2,5-dioxo-pyrrolidin-1-yl)-ethoxy]-3-ethyl-benzyl}-amino)-methyl]-cyclohexanecarboxylic acid]", "IC50": 45},
      {"smiles": "CCc1cc(CN(C[C@H]2CC[C@H](C(=O)O)CC2)C(C)c2ccc3c(c2)CCO3)ccc1OCCN1C(=O)CCC1=O", "note": "(stereo partly drawn) [Example 76, trans-4-[([1-(2,3-Dihydro-benzofuran-5-yl)-ethyl]-{4-[2-(2,5-dioxo-pyrrolidin-1-yl)-ethoxy]-3-ethyl-benzyl}-amino)-methyl]-cyclohexanecarboxylic acid]", "IC50": 45},
      {"smiles": "COc1cc(CN(C[C@H]2CC[C@H](C(=O)O)CC2)C(C)c2ccc(Cl)c(Cl)c2)ccc1OCCN1C(=O)CCC1=O", "note": "(stereo partly drawn) [Example 77, trans-4-[([1-(3,4-Dichloro-phenyl)-ethyl]-{4-[2-(2,5-dioxo-pyrrolidin-1-yl)-ethoxy]-3-methoxy-benzyl}-amino)-methyl]-cyclohexanecarboxylic acid]", "IC50": 182},
      {"smiles": "Cc1cc(CN(C[C@H]2CC[C@H](C(=O)O)CC2)C(C)c2ccc(Cl)c(Cl)c2)ccc1OCCN1C(=O)CCC1=O", "note": "(stereo partly drawn) [Example 78, trans-4-[([1-(3,4-Dichloro-phenyl)-ethyl]-{4-[2-(2,5-dioxo-pyrrolidin-1-yl)-ethoxy]-3-methyl-benzyl}-amino)-methyl]-cyclohexanecarboxylic acid]", "IC50": 270},
      {"smiles": "C[C@@H](c1ccc(Cl)cc1)N(Cc1ccc(OCCN2C(=O)CCC2=O)cc1)C[C@H]1CC[C@H](C(=O)O)CC1", "note": "[Example 79, trans-4-[([(S)-1-(4-Chloro-phenyl)-ethyl]-{4-[2-(2,5-dioxo-pyrrolidin-1-yl)-ethoxy]-benzyl}-amino)-methyl]-cyclohexanecarboxylic acid]", "IC50": 154},
      {"smiles": "CCc1ccc(C(C)N(Cc2ccc(OCCN3C(=O)CCC3=O)c(OC)c2)C[C@H]2CC[C@H](C(=O)O)CC2)cc1", "note": "(stereo partly drawn) [Example 81, trans-4-({{4-[2-(2,5-Dioxo-pyrrolidin-1-yl)-ethoxy]-3-methoxy-benzyl}-[1-(4-ethyl-phenyl)-ethyl]-amino}-methyl)-cyclohexanecarboxylic acid]", "IC50": 245},
      {"smiles": "COc1cc(CN(C[C@H]2CC[C@H](C(=O)O)CC2)C(C)c2ccc(Cl)c(F)c2)ccc1OCCN1C(=O)CCC1=O", "note": "(stereo partly drawn) [Example 82, trans-4-[([1-(4-Chloro-3-fluoro-phenyl)-ethyl]-{4-[2-(2,5-dioxo-pyrrolidin-1-yl)-ethoxy]-3-methoxy-benzyl}-amino)-methyl]-cyclohexanecarboxylic acid]", "IC50": 46},
      {"smiles": "Cc1ccc(C(C)N(Cc2ccc(OCCN3C(=O)CCC3=O)c(C)c2)C[C@H]2CC[C@H](C(=O)O)CC2)cc1", "note": "(stereo partly drawn) [Example 83, trans-4-{[{4-[2-(2,5-Dioxo-pyrrolidin-1-yl)-ethoxy]-3-methyl-benzyl}-(1-p-tolyl-ethyl)-amino]-methyl}-cyclohexanecarboxylic acid]", "IC50": 146},
      {"smiles": "COc1cc(CN(C[C@H]2CC[C@H](C(=O)O)CC2)C(C)c2ccc(C)cc2)ccc1OCCN1C(=O)CCC1=O", "note": "(stereo partly drawn) [Example 84, trans-4-{[{4-[2-(2,5-Dioxo-pyrrolidin-1-yl)-ethoxy]-3-methoxy-benzyl}-(1-p-tolyl-ethyl)-amino]-methyl}-cyclohexanecarboxylic acid]", "IC50": 107},
      {"smiles": "C[C@@H](c1ccc(Cl)cc1)N(Cc1ccc(OCCN2C(=O)CCC2=O)c(CO)c1)C[C@H]1CC[C@H](C(=O)O)CC1", "note": "[Example 85, trans-4-[([(S)-1-(4-Chloro-phenyl)-ethyl]-{4-[2-(2,5-dioxo-pyrrolidin-1-yl)-ethoxy]-3-hydroxymethyl-benzyl}-amino)-methyl]-cyclohexanecarboxylic acid]", "IC50": 71},
      {"smiles": "CCc1cc(CN(C[C@H]2CC[C@H](C(=O)O)CC2)[C@H]2CCc3c2ccc(Cl)c3Cl)ccc1OCCN1C(=O)CCC1=O", "note": "[Example 86, trans-4-[(((S)-4,5-Dichloro-indan-1-yl)-{4-[2-(2,5-dioxo-pyrrolidin-1-yl)-ethoxy]-3-ethyl-benzyl}-amino)-methyl]-cyclohexanecarboxylic acid]", "IC50": 85},
      {"smiles": "COc1cc(CN(C[C@H]2CC[C@H](C(=O)O)CC2)[C@@H](C)c2ccc(Cl)cc2)ccc1SCCN1C(=O)CCC1=O", "note": "[Example 87, trans-4-[([(S)-1-(4-Chloro-phenyl)-ethyl]-{4-[2-(2,5-dioxo-pyrrolidin-1-yl)-ethylsulfanyl]-3-methoxy-benzyl}-amino)-methyl]-cyclohexanecarboxylic acid]", "IC50": 19},
      {"smiles": "COc1cc(CN(C[C@H]2CC[C@H](C(=O)O)CC2)[C@H]2CCc3cc(Cl)ccc32)ccc1SCCN1C(=O)CCC1=O", "note": "[Example 88, trans-4-[(((S)-5-Chloro-indan-1-yl)-{4-[2-(2,5-dioxo-pyrrolidin-1-yl)-ethylsulfanyl]-3-methoxy-benzyl}-amino)-methyl]-cyclohexanecarboxylic acid]", "IC50": 23},
      {"smiles": "CCc1cc(CN(C[C@H]2CC[C@H](C(=O)O)CC2)C(C)c2ccc(Cl)c(F)c2)ccc1OCCN1C(=O)CCC1=O", "note": "(stereo partly drawn) [Example 89, trans-4-[([1-(4-Chloro-3-fluoro-phenyl)-ethyl]-{4-[2-(2,5-dioxo-pyrrolidin-1-yl)-ethoxy]-3-ethyl-benzyl}-amino)-methyl]-cyclohexanecarboxylic acid]", "IC50": 52},
      {"smiles": "CCc1cc(CN(C[C@H]2CC[C@H](C(=O)O)CC2)[C@H](C)c2ccc(Cl)c(F)c2)ccc1OCCN1C(=O)CCC1=O", "note": "[Example 90, trans-4-[([(R)-1-(4-Chloro-3-fluoro-phenyl)-ethyl]-{4-[2-(2,5-dioxo-pyrrolidin-1-yl)-ethoxy]-3-ethyl-benzyl}-amino)-methyl]-cyclohexanecarboxylic acid]", "IC50": 494},
      {"smiles": "CCc1cc(CN(C[C@H]2CC[C@H](C(=O)O)CC2)[C@@H](C)c2ccc(Cl)c(F)c2)ccc1OCCN1C(=O)CCC1=O", "note": "[Example 91, trans-4-[([(S)-1-(4-Chloro-3-fluoro-phenyl)-ethyl]-{4-[2-(2,5-dioxo-pyrrolidin-1-yl)-ethoxy]-3-ethyl-benzyl}-amino)-methyl]-cyclohexanecarboxylic acid]", "IC50": 121},
      {"smiles": "CC(c1ccc(Cl)c(F)c1)N(Cc1ccc(OCCN2C(=O)CCC2=O)c(F)c1)C[C@H]1CC[C@H](C(=O)O)CC1", "note": "(stereo partly drawn) [Example 92, trans-4-[([1-(4-Chloro-3-fluoro-phenyl)-ethyl]-{4-[2-(2,5-dioxo-pyrrolidin-1-yl)-ethoxy]-3-fluoro-benzyl}-amino)-methyl]-cyclohexanecarboxylic acid]", "IC50": 220},
      {"smiles": "COc1cc(CN(C[C@H]2CC[C@H](C(=O)O)CC2)C2CCc3c2ccc(F)c3Cl)ccc1OCCN1C(=O)CCC1=O", "note": "(stereo partly drawn) [Example 93, trans-4-[((4-Chloro-5-fluoro-indan-1-yl)-{4-[2-(2,5-dioxo-pyrrolidin-1-yl)-ethoxy]-3-methoxy-benzyl}-amino)-methyl]-cyclohexanecarboxylic acid]", "IC50": 84},
      {"smiles": "COc1cc(CN(C[C@H]2CC[C@H](C(=O)O)CC2)C2CCc3cc(F)c(Cl)cc32)ccc1OCCN1C(=O)CCC1=O", "note": "(stereo partly drawn) [Example 94, trans-4-[((6-Chloro-5-fluoro-indan-1-yl)-{4-[2-(2,5-dioxo-pyrrolidin-1-yl)-ethoxy]-3-methoxy-benzyl}-amino)-methyl]-cyclohexanecarboxylic acid]", "IC50": 630},
      {"smiles": "CCc1cc(CN(C[C@H]2CC[C@H](C(=O)O)CC2)C2CCc3cc(F)c(Cl)cc32)ccc1OCCN1C(=O)CCC1=O", "note": "(stereo partly drawn) [Example 95, trans-4-[((6-Chloro-5-fluoro-indan-1-yl)-{4-[2-(2,5-dioxo-pyrrolidin-1-yl)-ethoxy]-3-ethyl-benzyl}-amino)-methyl]-cyclohexanecarboxylic acid]", "IC50": 4040},
      {"smiles": "CCc1cc(CN(C[C@H]2CC[C@H](C(=O)O)CC2)C2CCc3c2ccc(F)c3Cl)ccc1OCCN1C(=O)CCC1=O", "note": "(stereo partly drawn) [Example 96, trans-4-[((4-Chloro-5-fluoro-indan-1-yl)-{4-[2-(2,5-dioxo-pyrrolidin-1-yl)-ethoxy]-3-ethyl-benzyl}-amino)-methyl]-cyclohexanecarboxylic acid]", "IC50": 443},
      {"smiles": "O=C1CCC(=O)N1CCOc1ccc(CN(C[C@H]2CC[C@H](C(=O)O)CC2)C2CCc3cc(F)c(Cl)cc32)cc1F", "note": "(stereo partly drawn) [Example 97, trans-4-[((6-Chloro-5-fluoro-indan-1-yl)-{4-[2-(2,5-dioxo-pyrrolidin-1-yl)-ethoxy]-3-fluoro-benzyl}-amino)-methyl]-cyclohexanecarboxylic acid]", "IC50": 4640}
    ]}
  ]
}
